Reference: article PMC9866852, “New Chlorinated Metabolites and Antiproliferative Polyketone from the Mangrove Sediments-Derived Fungus Mollisia sp. SCSIO41409” (Marine Drugs, 2022)
Values after ≈ are worked out from the molar mass of the structure shown. Where two headings read alike, the source gives them in different places. Marks after values point to notes of the source that are not given here.

What was measured:
Botrytis cinerea = experiment: Antifungal MIC, twofold serial dilution in 96-well plates; format: cell-based; conditions: B. cinerea
[1] = test system: Verticillium dahlia kieb.; experiment: as above; format: cell-based; conditions: V. dahlia
[2] = test system: Fusarium graminearum schw.; experiment: microbe, parasite or virus in culture; format: cell-based; conditions: read-out: Antifungal MIC
[3] = test system: Fusarium oxysporum f.sp. niveum; experiment: Antifungal MIC, twofold serial dilution in 96-well plates; format: cell-based
Rhizoctonia solani = experiment: as above; format: cell-based; conditions: R. solani
Septoria nodorum Berk. = experiment: as above; format: cell-based; conditions: Parastagonospora nodorum; S. nodorum
[4] = test system: Erysipelothrix rhusiopathiae WH13013; experiment: Antibacterial MIC, twofold serial dilution in 96-well plates; format: cell-based; conditions: E. rhusiopathiae; for MIC: Erysipelothrix rhusiopathiae, WH13013
[5] = test system: Staphylococcus aureus ATCC 25923; experiment: as above; format: cell-based; conditions: S. aureus; for MIC: Staphylococcus aureus, ATCC25923
Streptococcus suis SC19 = experiment: as above; format: cell-based; conditions: S. suis; for MIC: Streptococcus suis, SC19
[6] = test system: Escherichia coli ATCC 25922; experiment: as above; format: cell-based; conditions: ATCC25922, E. coli
22Rv1 cells = experiment: Cytotoxicity / antiproliferative MTT assay; format: cell-based, human; conditions: read-out: Cytotoxic IC50
Protocol: (§1) Cell viability was analyzed by 3-(4,5)-[…] (MTT) assay as previously described. In brief, cells were seeded in a 96-well plate at a density of 5 × 10^3 per well overnight and treated with compounds for demand time. OD570 values were detected using a Hybrid Multi-Mode Reader (Synergy H1, BioTek, Santa Clara, CA, USA). The experiment was independently repeated three times.

PC-3 cells [7] = experiment: Cytotoxicity / antiproliferative MTT assay; format: cell-based; conditions: Homo sapiens, PC-3, PC-3 (androgen receptor negative); read-out: Cytotoxic IC50
Protocol: as §1

[8] = test system: Botrytis cinerea, Verticillium dahlia kieb., Fusarium graminearum schw., Fusarium oxysporum f.sp. niveum, Rhizoctonia solani, Septoria nodorum Berk.; format: cell-based; conditions: range over B. cinerea, V. dahlia, R. solani, S. nodorum
[9] = Cytotoxicity / antiproliferative MTT assay; format: cell-based; conditions: human, WPMY-1 cells, read-out: Cytotoxic IC50
Protocol: as §1

A549 cells = experiment: Cytotoxicity / antiproliferative MTT assay; format: cell-based; conditions: Homo sapiens, read-out: Cytotoxic IC50
Protocol: as §1

Hela cells = experiment: Cytotoxicity / antiproliferative MTT assay; format: cell-based; conditions: Homo sapiens, read-out: Cytotoxic IC50
Protocol: as §1

HepG2 cells = experiment: Cytotoxicity / antiproliferative MTT assay; format: cell-based; conditions: read-out: Cytotoxic IC50
Protocol: as §1

WPMY-1 cells = experiment: Cytotoxicity / antiproliferative MTT assay; format: cell-based; conditions: read-out: Cytotoxic IC50
Protocol: as §1

PC-3 cells [10] = experiment: Plate clone formation assay; format: cell-based, human; conditions: 0.16, 0.32 and 0.64 μM; two weeks
Protocol: The cell clone colony formation was observed after two weeks of treatment. Cells were fixed with 4% formaldehyde for 30 min and washed with PBS buffer, then stained with crystal violet stain solution for 30 min. The dye solution was removed and washed the cells with PBS buffer again. Cell colonies were recorded and analyzed by the colony count analysis system (GelCount, Oxford Optronix, Oxford, UK). The experiment was repeated three times independently.

PC-3 cells [11] = experiment: Apoptosis assay, annexin V-FITC/PI flow cytometry; format: cell-based, human; conditions: 48 h
Source text: (§2) Then, cells were collected and stained with annexin V-FITC and PI solution, following the manufacturer’s manual (BMS500FI-300, Thermo Fisher Scientific, Waltham, MA, USA). Apoptotic rates and cell cycle distribution of PC-3 cells were examined and analyzed by flow cytometer (NovoCyte, Agilent, Santa Clara, CA, USA). Each experiment was repeated three times independently.

PC-3 cells [12] = experiment: Cell cycle distribution, flow cytometry; format: cell-based, human; conditions: 48 h
Source text: as §2

[13] = test system: HepG2, A549, Hela, WPMY-1, MC3T3-E1 cells; experiment: Antiproliferative MTT assay, summary over other cells; format: cell-based; conditions: range over HepG2, A549, Hela, read-out: IC50 values against other cells
Protocol: as §1

human CCR5 receptor = target: human CCR5 receptor; set-up: method as in PMID 15217290; conditions: read-out: IC50, inhibition of binding with human CCR5 receptor; cited from earlier work
[14] = Homo sapiens, 22Rv1, 22Rv1 (androgen receptor positive)

O=C1NC(=O)C(Cl)=C1Cl [Compound 3, 3,4-dichloro-1H-pyrrole-2,5-dione]
MIC (Botrytis cinerea): 25 µg/mL (≈ 151 µM) | MIC [1]: 25 µg/mL (≈ 151 µM) | MIC [2]: 50 µg/mL (≈ 301 µM) | MIC [3]: 50 µg/mL (≈ 301 µM) | MIC (Rhizoctonia solani): 50 µg/mL (≈ 301 µM) | MIC (Septoria nodorum Berk.): 25 µg/mL (≈ 151 µM) | MIC [4]: > 100 µg/mL | MIC [5]: 100 µg/mL (≈ 603 µM) | MIC (Streptococcus suis SC19): 100 µg/mL (≈ 603 µM) | MIC [6]: > 100 µg/mL | IC50 (22Rv1 cells; [14]): 8.35 µM | IC50 (PC-3 cells [7]): 9.6 µM | MIC values against six fungi [8]: 25 to 50 µg/mL | melting point: 173 to 175 °C

CC=C(C)C(OC(C)=O)C(C)C1=CC(=O)C2=C(OC3(C)CCC4OC(C(C)(C)O)CCC4(C)C3C2)C1=O (stereo not drawn) [Compound 4, stemphone C]
MIC (Botrytis cinerea): > 100 µg/mL | MIC [1]: > 100 µg/mL | MIC [2]: > 100 µg/mL | MIC [3]: > 100 µg/mL | MIC (Rhizoctonia solani): > 100 µg/mL | MIC (Septoria nodorum Berk.): 50 µg/mL (≈ 97.2 µM) | MIC [4]: 1.56 µg/mL (≈ 3.03 µM) | MIC [5]: > 100 µg/mL | MIC (Streptococcus suis SC19): 6.25 µg/mL (≈ 12.1 µM) | MIC [6]: > 100 µg/mL | IC50 (22Rv1 cells; 22Rv1 (androgen receptor positive)): 5.81 µM | IC50 (22Rv1 cells; [14]): < 10 µM | IC50 [9]: < 10 µM | IC50 (A549 cells): 11.7 µM | IC50 (Hela cells): 11.5 µM | IC50 (HepG2 cells; HepG2): 7.11 µM | IC50 (HepG2 cells; Homo sapiens, HepG2, HepG2): < 10 µM | IC50 (WPMY-1 cells): 5.53 µM | Formation of clonal colonies of PC-3 cells (PC-3 cells [10]): significantly inhibited the formation of clonal colonies of PC-3 cells | Q3-1 quadrant, cells (PC-3 cells [11]; PC-3, 2.5 μM): 3.29% | Q3-2 quadrant (late apoptosis), cells (PC-3 cells [11]; PC-3, 2.5 μM): 1.02% | Q3-3 quadrant, cells (PC-3 cells [11]; PC-3, 2.5 μM): 94.52% | Q3-4 quadrant (early apoptosis), cells (PC-3 cells [11]; PC-3, 2.5 μM): 1.17% | Q3-1 quadrant, cells (PC-3 cells [11]; PC-3, 5.0 μM): 4.69% | Q3-2 quadrant (late apoptosis), cells (PC-3 cells [11]; PC-3, 5.0 μM): 4.89% | Q3-3 quadrant, cells (PC-3 cells [11]; PC-3, 5.0 μM): 83.56% | Q3-4 quadrant (early apoptosis), cells (PC-3 cells [11]; PC-3, 5.0 μM): 6.86% | Q3-1 quadrant, cells (PC-3 cells [11]; PC-3, 10.0 μM): 14.56% | Q3-2 quadrant (late apoptosis), cells (PC-3 cells [11]; PC-3, 10.0 μM): 36.84% | Q3-3 quadrant, cells (PC-3 cells [11]; PC-3, 10.0 μM): 33.95% | Q3-4 quadrant (early apoptosis), cells (PC-3 cells [11]; PC-3, 10.0 μM): 14.64% | Freq S (PC-3 cells [12]; PC-3, 10.0 μM): 59.14% | IC50 [13]: 3.63 to 11.7 µM

C[C@@H]1C[C@@H]([C@H](O)CC2CC(=O)NC(=O)C2)C(=O)[C@@H](C)C1 [Cycloheximide, reference compound]
MIC (Botrytis cinerea): 12.5 µg/mL (≈ 44.4 µM) | MIC [1]: 12.5 µg/mL (≈ 44.4 µM) | MIC [2]: 12.5 µg/mL (≈ 44.4 µM) | MIC [3]: > 100 µg/mL | MIC (Rhizoctonia solani): 100 µg/mL (≈ 355 µM) | MIC (Septoria nodorum Berk.): 12.5 µg/mL (≈ 44.4 µM)

CC(=O)O[C@@]12CO[C@@H]1C[C@H](O)[C@@]1(C)C(=O)[C@H](O)C3=C(C)[C@@H](OC(=O)[C@H](O)[C@@H](NC(=O)OC(C)(C)C)c4ccccc4)C[C@@](O)([C@@H](OC(=O)c4ccccc4)[C@H]21)C3(C)C [Docetaxel, reference compound]
IC50 (22Rv1 cells; [14]): 0.03 µM | IC50 [9]: 0.51 µM | IC50 (A549 cells): 29.9 µM | IC50 (HepG2 cells; Homo sapiens, HepG2, HepG2): 179 µM | IC50 (PC-3 cells [7]): 0.12 µM | Q3-1 quadrant, cells (PC-3 cells [11]; PC-3, 1.0 μM): 5.87% | Q3-2 quadrant (late apoptosis), cells (PC-3 cells [11]; PC-3, 1.0 μM): 1.68% | Q3-3 quadrant, cells (PC-3 cells [11]; PC-3, 1.0 μM): 89.89% | Q3-4 quadrant (early apoptosis), cells (PC-3 cells [11]; PC-3, 1.0 μM): 2.57% | Freq G2 (G2/M) (PC-3 cells [12]; PC-3, 1.0 μM): 71.23%

CC(C)=CCC[C@H](C)[C@H]1CC[C@]2(C)C[C@H]3[C@H](C(=O)C[C@@]3(C)O)/C(C=O)=C\C[C@@H]12 [Ophiobolin C]
IC50 (human CCR5 receptor): 40 µM

[H]/N=C(/N)N[C@H]1[C@H](O)[C@@H](O)[C@H](O[C@@H]2O[C@@H](C)[C@](O)(C=O)[C@H]2O[C@@H]2O[C@@H](CO)[C@H](O)[C@@H](O)[C@@H]2NC)[C@@H](N/C(N)=N\[H])[C@@H]1O [Streptomycin, reference compound]
MIC [6]: 50 µg/mL (≈ 86 µM)

Penicillin [reference compound]
Antibacterial MIC [4]: 6.25^b μg/mL | Antibacterial MIC ([4]; listed as penicillin): 6.25 µg/mL | Antibacterial MIC [5]: 6.25 ^b μg/mL | Antibacterial MIC (Streptococcus suis SC19): 1.56 ^b μg/mL
